According to patent US20230011869A1 (Hoffmann-La Roche Inc., priority 2018, published 2023):
Counter-ions that a name gives are not always drawn. Like-named read-outs stand apart in the source and are kept apart here.

System: Acinetobacter baumannii ATCC17978
Assay: Antimicrobial susceptibility testing: 90% growth inhibitory concentration (IC90) determination, Iso-Sensitest broth
Format: cell-based
Summary of the method: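 A. baumannii ATCC17978 grown in Iso-Sensitest broth across 10 compound concentrations at 35±2 °C.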

[1] = 90% growth inhibitory concentration, Acinetobacter baumannii ATCC17978, Iso-Sensitest broth, OD 600 nm over 16 h, read-out: ATCC17978 IC90
[2] = Acinetobacter baumannii, ATCC17978, 16 h, read-out: ATCC17978 IC90, 90% growth inhibitory concentration, Acinetobacter baumannii ATCC17978, Iso-Sensitest broth, OD 600 nm over 16 h

IC90 [1] [nM]	Molecule	IC90 [2] [nM]
	Cc1cc(Nc2nccn3c(-c4ccc(OC(F)F)cc4)cnc23)ccc1C(=O)N1CCN(C(=O)[C@H]2[C@@H]3CNC[C@@H]32)CC1 [Example 319, [4-[[3-[4-(difluoromethoxy)phenyl]imi-dazo[1,2-a]pyrazin-8-yl]amino]-2-methylphenyl]-[4-[rac-(1R,5S)-3-azabicyclo[3.1.0]hexane-6-carbonyl]piperazin-1-yl]methanone; hydrochloride]	260
110	COc1ccc(-c2cnc3c(Nc4ccc(C(=O)N5CCN(C(=O)NC[C@@H](C)N)CC5)c(C)c4)nccn23)c(F)c1F [Example 152, N-[(2R)-2-aminopropyl]-4-[4-[[3-(2,3-difluoro-4-methoxy-phenyl)imidazo[1,2-a]pyrazin-8-yl]amino]-2-methyl-benzoyl]piperazine-1-carboxamide hydrochloride]	
	Cc1cc(Nc2nccn3c(-c4ccc(OC(F)F)cc4)cnc23)ccc1C(=O)N1CCN(C(=O)[C@H]2CC[C@H](C(=O)O)CC2)CC1 [Example 265, 4-[4-[4-[[3-[4-(difluoromethoxy)phenyl]imi-dazo[1,2-a]pyrazin-8-yl]amino]-2-methylbenzoyl]piperazine-1-carbonyl]cyclohexane-1-carboxylic acid]	1100
	Cc1cc(Nc2nccn3c(-c4ccc(OC(F)F)cc4)cnc23)ccc1C(=O)N1CCN(C(=O)[C@H]2CCN2)CC1 [Example 521, [4-[(2R)-azetidine-2-carbonyl]piperazin-1-yl]-[4-[[3-[4-(difluoromethoxy)phenyl]imi-dazo[1,2-a]pyrazin-8-yl]amino]-2-methylphenyl]methanone; hy-drochloride]	370
	CNCCN(C)C(=O)C1CCN(C(=O)c2ccc(Nc3nccn4c(-c5ccc(OC)c(F)c5)cnc34)cc2C)CC1 [Example 391, 1-[4-[[3-(3-fluoro-4-methoxyphenyl)imidazo[1,2-a]pyrazin-8-yl]amino]-2-methylbenzoyl]-N-methyl-N-[2-(methylamino)ethyl]piperidine-4-carboxamide; hydrochloride]	340
270	Cc1cc(Nc2nccn3c(-c4ccc(OCC#N)c(F)c4F)cnc23)ccc1C(=O)N1CCN(C(=O)[C@@H]2CCNC[C@@H]2O)CC1 (relative stereo) [Example 196, 2-[2,3-difluoro-4-[8-[3-methyl-4-[4-[rac-(3R,4R)-3-hydroxypiperidine-4-carbonyl]piperazine-1-carbonyl]anilino]imidazo [1,2-a]pyrazin-3-yl]phenoxy] acetonitrile formate]	
960	COc1ccc(-c2cnc3c(Nc4ccc(C(=O)N5CCC6(CNC6)C5)c(C)c4)nccn23)cc1F [Example 417, 2,6-diazaspiro[3.4]octan-6-yl-[4-[[3-(3-fluoro-4-methoxyphenyl)imidazo[1,2-a]pyrazin-8-yl]amino]-2-methylphenyl]methanone; hy-drochloride]	
	COc1ccc(-c2cnc3c(Nc4ccc(C(=O)N5CCN(C(=O)[C@@H]6C[C@@H](OC(=O)[C@@H](N)[C@@H](C)O)CN6)CC5)c(C)c4)nccn23)c(F)c1F [Example 549, [(3R,5S)-5-[4-[4-[[3-(2,3-difluoro-4-methoxy-phenyl)imidazo[1,2-a]pyrazin-8-yl]amino]-2-methyl-benzoyl]piperazine-1-carbonyl]pyrrolidin-3-yl] (2S,3R)-2-amino-3-hydroxy-butanoate formate]	75
	CNCCCNC(=O)C1CCN(C(=O)c2ccc(Nc3nccn4c(-c5ccc(OC)c(F)c5)cnc34)cc2C)CC1 [Example 49, 1-(4-((3-(3-fluoro-4-methoxyphenyl)imidazo[1,2-a]pyrazin-8-yl)amino)-2-methylbenzoyl)-N-(3-(methylamino)propyl)piperidine-4-carboxamide hydrochloride]	270
	COc1ccc(-c2cnc3c(Nc4ccc(C(=O)N5CCC(CNC(CN)C(=O)O)CC5)c(C)c4)nccn23)cc1 (stereo not shown) [Example 420, 3-amino-2-[[1-[4-[[3-(4-methoxyphenyl)imidazo[1,2-a]pyrazin-8-yl]amino]-2-methylbenzoyl]piperidin-4-yl]methylamino]propanoic acid; formic acid]	1100
	COc1ccc(-c2cnc3c(Nc4ccc(C(=O)N5CCN(C6CCNC6)CC5)c(C)c4)nccn23)cc1F (stereo not shown) [Example 348, [4-[[3-(3-fluoro-4-methoxyphenyl)imidazo[1,2-a]pyrazin-8-yl]amino]-2-methylphenyl]-(4-pyrrolidin-3-ylpiperazin-1-yl)methanone; hydrochloride]	660
	Cc1cc(Nc2nccn3c(-c4ccc(OC(F)F)cc4)cnc23)ccc1C(=O)N1CCN(C(=O)[C@H]2CCNC[C@H]2O)CC1 [Example 511, [4-[[3-[4-(difluoromethoxy)phenyl]imi-dazo[1,2-a]pyrazin-8-yl]amino]-2-methylphenyl]-[4-[(3S,4S)-3-hydroxypiperidine-4-carbonyl]piperazin-1-yl]methanone]	560
250	COc1cc(F)c(-c2cnc3c(Nc4ccc(C(=O)N5CCC(CN)CC5)c(C)c4)nccn23)cc1F [Example 106, (4-(aminomethyl)piperidin-1-yl)(4-((3-(2,5-difluoro-4-methoxyphenyl)imidazo[1,2-a]pyrazin-8-yl)amino)-2-methylphenyl)methanone]	
	Cc1cc(Nc2nccn3c(-c4ccc(OC(F)F)cc4)cnc23)ccc1C(=O)N1CCC(C(=O)NC[C@@H](O)CN)CC1 [Example 554, (S)-N-(3-amino-2-hydroxypropyl)-1-(4-((3-(4-(difluoromethoxy)phenyl)imidazo [1,2-a]pyrazin-8-yl)amino)-2-methylbenzoyl)piperidine-4-carboxamide formate]	344
	COc1ccc(-c2cnc3c(Nc4ccc(C(=O)N5CCN(C(=O)[C@@H]6C[C@@H](OC(=O)[C@@H](N)C(C)C)CN6)CC5)c(C)c4)nccn23)c(F)c1F [Example 552, [(3R,5S)-5-[4-[4-[[3-(2,3-difluoro-4-methoxy-phenyl)imidazo[1,2-a]pyrazin-8-yl]amino]-2-methyl-benzoyl]piperazine-1-carbonyl]pyrrolidin-3-yl] (2S)-2-amino-3-methyl-butanoate]	186
	Cc1cc(Nc2nccn3c(-c4ccc(OC(F)F)cc4)cnc23)ccc1C(=O)N1CCN(C(=O)[C@@H](N)Cc2cnc[nH]2)CC1 [Example 437, (2S)-2-amino-1-[4-[4-[[3-[4-(difluoromethoxy)phenyl]imi-dazo[1,2-a]pyrazin-8-yl]amino]-2-methylbenzoyl]piperazin-1-yl]-3-(1H-imidazol-5-yl)propan-1-one; hydrochloride]	770
	Cc1cc(Nc2nccn3c(-c4ccc(OC(F)F)cc4)cnc23)ccc1C(=O)N1CCN(C(=O)N2CCNCC2)CC1 [Example 518, [4-[[3-[4-(difluoromethoxy)phenyl]imi-dazo[1,2-a]pyrazin-8-yl]amino]-2-methylphenyl]-[4-(piperazine-1-carbonyl)piperazin-1-yl]methanone; hydrochloride]	170
270	Cc1cc(Nc2nccn3c(-c4ccc(OC(F)F)cc4)cnc23)ccc1C(=O)N1CCC(C(=O)N2CCNC(CO)C2)CC1 (stereo not shown) [Example 183, [4-[[3-[4-(difluoromethoxy)phenyl]imidazo[1,2-a]pyrazin-8-yl]amino]-2-methyl-phenyl]-[4-[3-(hydroxymethyl)piperazine-1-carbonyl]-1-piperidyl]methanone hydrochloride]	
	Cc1cc(Nc2nccn3c(-c4ccc(OC(F)F)cc4)cnc23)ccc1C(=O)N1CCN(C(=O)N[C@@H](C)CN)CC1 [Example 491, N-[(2S)-1-aminopropan-2-yl]-4-[4-[[3-[4-(difluoromethoxy)phenyl]imi-dazo[1,2-a]pyrazin-8-yl]amino]-2-methylbenzoyl]piperazine-1-carboxamide]	300
	Cc1cc(Nc2nccn3c(-c4ccc(OC(F)F)cc4)cnc23)ccc1C(=O)N1CCN(C(=O)[C@@H]2CCNC[C@@H]2O)CC1 [Example 516, [4-[[3-[4-(difluoromethoxy)phenyl]imi-dazo[1,2-a]pyrazin-8-yl]amino]-2-methylphenyl]-[4-[(3R,4R)-3-hydroxypiperidine-4-carbonyl]piperazin-1-yl]methanone]	650
	Cc1cc(Nc2nccn3c(-c4ccc(OC(F)F)cc4)cnc23)ccc1C(=O)N1CCN(C(=O)[C@@H](N)CCCCN)CC1 [Example 452, (2S)-2,6-diamino-1-[4-[4-[[3-[4-(difluoromethoxy)phenyl]imi-dazo[1,2-a]pyrazin-8-yl]amino]-2-methylbenzoyl]piperazin-1-yl]hexan-1-one; hydrochloride]	3600
	Cc1cc(Nc2nccn3c(-c4ccc(OC(F)F)cc4)cnc23)ccc1C(=O)N1CCC(N2CCOCC2)CC1 [Example 366, [4-[[3-[4-(difluoromethxoy)phenyl]imi-dazo[1,2-a]pyrazin-8-yl]amino]-2-methylphenyl]-(4-morpholin-4-ylpiperidin-1-yl)methanone]	640
150	COc1ccc(-c2cnc3c(Nc4ccc(C(=O)N5CCN(C(=O)C6(O)CCNCC6)CC5)c(C)c4)nccn23)c(Cl)c1F [Example 215, [4-[[3-(2-chloro-3-fluoro-4-methoxy-phenyl)imidazo[1,2-a]pyrazin-8-yl]amino]-2-methyl-phenyl]-[4-(4-hydroxypiperidine-4-carbonyl)piperazin-1-yl]methanone formate]	
	CC(=O)NCCCC[C@H](N)C(=O)N1CCN(C(=O)c2ccc(Nc3nccn4c(-c5ccc(OC(F)F)cc5)cnc34)cc2C)CC1 [Example 338, N-[(5S)-5-amino-6-[4-[4-[[3-[4-(difluoromethoxy)phenyl]imi-dazo[1,2-a]pyrazin-8-yl]amino]-2-methylbenzoyl]piperazin-1-yl]-6-oxohexyl]acetamide; hydrochloride]	480

Molecule	IC90 [1] [nM]	IC90 [2] [nM]
1-[4-[[3-[4-(cyanomethoxy)-2,3-difluoro-phenyl]imidazo[1,2-a]pyrazin-8-yl]amino]-2-methyl-benzoyl]-N-methylsulfonyl-piperidine-4-carboxamide trifluoroacetate [Example 100]	1600	
